{
  "source": "patent US20210220489A1",
  "about": "“AMYGDALAR NEURAL ENSEMBLE THAT ENCODES THE UNPL[…] PAIN” (The Board of Trustees of the Leland Stanford Junior …, priority 2020, published 2021)",
  "tested_on": "control neuropathic mice",
  "experiment": "Pain behaviors in control neuropathic mice not expressing hM4-mCherry in the BLA",
  "type": "in vivo",
  "settings": "absence of hM4 expression, CNO 10 mg/kg, morphine as positive control",
  "text": "To induce a chronic pain state, we used a modified version of the Spared Nerve Injury (SNI) model of neuropathic pain, as previously described (70). This model entails surgical section of two of the sciatic nerve branches (common peroneal and tibial branches) while sparing the third (sural branch). […] To perform this peripheral nerve injury procedure, anesthesia was induced and maintained throughout surgery with isoflurane (4% induction, 1.5% maintenance in oxygen). The left hind leg was shaved and wiped clean with alcohol and betadine. We made a 1-cm incision in the skin of the mid-dorsal thigh, approximately where the sciatic nerve trifurcates. The biceps femoris and semimembranosus muscles were gently separated from one another with blunt scissors, thereby creating a <1-cm opening between the muscle groups to expose the common peroneal, tibial, and sural branches of the sciatic nerve. Next, −2 mm of both the common peroneal and tibial nerves were transected and removed, without suturing and with care not to distend the sural nerve. The leg muscles are left uncultured and the skin was closed with tissue adhesive (3M Vetbond), followed by a Betadine application. During recovery from surgery, mice were placed under a heat lamp until awake and achieved normal balanced movement. Mice were then returned to their home cage and closely monitored over the following three days for well-being.\nTo evaluate mechanical reflexive sensitivity, we used a logarithmically increasing set of 8 von Frey filaments (Stoelting), ranging in gram force from 0.07- to 6.0-g (93). These filaments were applied perpendicular to the plantar hindpaw with sufficient force to cause a slight bending of the filament. […] Using the Up-Down statistical method, the 50% withdrawal mechanical threshold scores were calculated for each mouse and then averaged across the experimental groups. The response frequency was calculated as the number of positive responses out of 10 stimulations, delivered at 30-s intervals.\nTo evaluate affective-motivational responses evoked by thermal stimulation (81), we applied either a single, unilateral 50-μL drop of water (5, 30, or 55° C.) or acetone (evaporative cooling) to the left hindpaw, and the duration of attending behavior was collected for up to 60 s after the stimulation. […] The track was subdivided into 25 temperature zones (4.8-cm D per zone), and we assessed the temperature at the center of each zone by a K-probe thermocouple. […] A video camera placed above the track recorded the position of the mouse within the temperature zones, and videos were later analyzed using a video-tracking software (Etho-vision, Noldus) for duration of zone occupancy, zone visits, distance, velocity, and acceleration.",
  "data": [
    {"smiles": "CN1CC[C@]23c4c5ccc(O)c4O[C@H]2[C@@H](O)C=C[C@H]3[C@H]1C5", "note": "[Morphine]", "values": [
      {"measurement": "affective-motivational behaviors", "setting": "acetone drop", "value": "reduced"},
      {"measurement": "reflex behaviors", "setting": "von Frey filaments", "value": "reduced"}
    ]}
  ]
}
